Reference: US20120088660A1, “Antifungal 1,2,4-triazolyl Derivatives” (BASF SE, priority 2009, published 2012)

System: Phakopsora pachyrhizi
Experiment: Curative control of soy bean rust on soy beans (greenhouse test)
Assay type: in vivo
Details: 300 ppm aqueous preparation sprayed to run-off after inoculation (curative); soy bean seedlings; assessed after 14 days; untreated plants 60% infected
Description: The spray soultions were prepared in several steps: The stock solution were prepared by adding a mixture of acetone and/or dimethylsulfoxide and the wetting agent/emulsifier Wettol, which is based on ethoxylated alkylphenoles, in a relation (volume) solvent-emulsifier of 99 to 1 to 25 mg of the compound to give a total of 10 ml. Water was then added to total volume of 100 ml. This stock solution was diluted with the described solvent-emulsifier-water mixture to the given concentration. 1. Curative Control of Soy Bean Rust on Soy Beans Caused by Phakopsora Pachyrhizi Leaves of pot-grown soy bean seedlings were inoculated with spores of Phakopsora pachyrhizi. To ensure the success of the artificial inoculation, the plants were transferred to a humid chamber with a relative humidity of about 95% and 20 to 24° C. for 24 h. The next day the plants were cultivated for 2 days in a greenhouse chamber at 23-27° C. and a relative humidity between 60 and 80%. Then the plants were sprayed to run-off with an aqueous suspension, containing the concentration of active ingredient or their mixture as described below. The plants were allowed to air-dry. Then the trial plants were cultivated for 14 days in a greenhouse chamber at 23-27° C. and a relative humidity between 60 and 80%. The extent of fungal attack on the leaves was visually assessed as % diseased leaf area.

SMILES | infection (extent of fungal attack on the leaves, visually assessed as % diseased leaf area)
CC(C)(C)C(O)(CCCCOc1ccccc1)Cn1nc[nH]c1=S (stereo not drawn) [Example 1, 1-(2-tert-Butyl-2-hydroxy-6-phenoxyhexyl)-1H-1,2,4-triazole-5(4H)-thione] | 0%
CC(C)(C)C(O)(CCCCOc1ccccc1F)Cn1nc[nH]c1=S (stereo not drawn) [Example 2, 1-[2-tert-Butyl-6-(2-fluorophenoxy)-2-hydroxyhexyl]-1H-1,2,4-triazole-5(4H)-thione] | 0%
CC(C)(C)C(O)(CCCCOc1ccc(F)cc1F)Cn1nc[nH]c1=S (stereo not drawn) [Example 3, 1-[2-tert-Butyl-6-(2,4-difluorophenoxy)-2-hydroxyhexyl]-1H-1,2,4-triazole-5(4H)-thione] | 0%
CC(C)(C)C(O)(CCCCOc1ccccc1Cl)Cn1nc[nH]c1=S (stereo not drawn) [Example 4, 1-[2-tert-Butyl-6-(2-chlorophenoxy)-2-hydroxyhexyl]-1H-1,2,4-triazole-5(4H)-thione] | 0%
CC(C)(C)C(O)(CCCCOc1ccc(Cl)cc1Cl)Cn1nc[nH]c1=S (stereo not drawn) [Example 5] | 0%
CC(C)(C)C(O)(CCCCOc1cccc(Cl)c1)Cn1nc[nH]c1=S (stereo not drawn) [Example 6, 1-[2-tert-Butyl-6-(3-chlorophenoxy)-2-hydroxyhexyl]-1H-1,2,4-triazole-5(4H)-thione] | 0%
CC(C)(C)C(O)(CCCCCOc1ccccc1F)Cn1nc[nH]c1=S (stereo not drawn) [Example 11, 1-[2-tert-butyl-7-(2-fluorophenoxy)-2-hydroxyheptyl]-1H-1,2,4-triazole-5(4H)-thione] | 0%
CC(C)(C)C(O)(CCCCCOc1ccc(F)cc1F)Cn1nc[nH]c1=S (stereo not drawn) [Example 13, 1-[2-tert-butyl-7-(2,4-difluorophenoxy)-2-hydroxyheptyl]-1H-1,2,4-triazole-5(4H)-thione] | 0%
CC(C)(C)C(O)(CCCCCOc1ccccc1Cl)Cn1nc[nH]c1=S (stereo not drawn) [Example 16, 1-[2-tert-butyl-7-(2-chlorophenoxy)-2-hydroxyheptyl]-1H-1,2,4-triazole-5(4H)-thione] | 0%
CC(C)(C)C(O)(CCCCCOc1cccc(Cl)c1)Cn1nc[nH]c1=S (stereo not drawn) [Example 17, 1-[2-tert-butyl-7-(3-chlorophenoxy)-2-hydroxyheptyl]-1H-1,2,4-triazole-5(4H)-thione] | 0%
CC(C)(C)C(O)(CCCCCOc1ccc(Cl)cc1)Cn1nc[nH]c1=S (stereo not drawn) [Example 18, 1-[2-tert-butyl-7-(4-chlorophenoxy)-2-hydroxyheptyl]-1H-1,2,4-triazole-5(4H)-thione] | 0%
Cc1ccc(OCCCCCC(O)(Cn2nc[nH]c2=S)C(C)(C)C)cc1 (stereo not drawn) [Example 20, 1-[2-tert-butyl-7-(4-methylphenoxy)-2-hydroxyheptyl]-1H-1,2,4-triazole-5(4H)-thione] | 0%
